The source of these data is patent publication US20230203004A1, “RSV INHIBITING 3-SUBSTITUTED QUINOLINE AND CINNOLINE DERIVATIVES” (Janssen Sciences Ireland Unlimited Company, priority 2020, published 2023).

For data set [1], the system named is rgRSV224 virus. Nature of the data set: Antiviral activity: rgRSV224 (GFP) replication in HeLa cells. It counts as cell-based, respiratory syncytial virus (RSV). The following applies: human respiratory syncytial virus, HeLa. In short, it runs like this:
(§1)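 Over 3 days at 37 °C, compound titrations (4-fold steps, nine dilutions) were tested on HeLa cells infected with rgRSV224 (MOI = 1), inhibition of GFP signal giving EC50. In parallel plates, ATP content of HeLa cells after 3-day exposure defined CC50.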

Data set [2] can be described thus: Cytotoxicity in HeLa cells (ATP content, ATPlite kit). It counts as cell-based. The following applies: human. In a few lines: as §1
(In general: Cellular ATP, detected with luciferase, serves as a proxy for viable cell number.)

Setting [3] is: 72 h, read-out: RSV HELA EC50, HeLa cells, rgRSV224 MOI = 1, GFP expression three days post-virus exposure, averaged data of several repeat experiments.
[4] abbreviates: comparison table 5.3, antiviral RSV assay of Example 5.1.

Where two headings read alike, the source gives them in different places.

By EC50 is commonly meant the concentration that produces a half-maximal response. In general, CC50 refers to the concentration that lowers cell viability or growth by half. As for `COc1cc(C(=O)NC[C@](O)(c2nc(-c3ccc(F)cc3)c(F)c(C(C)(C)NS(C)(=O)=O)c2F)C(F)(F)F)cc2cc(C)nnc12` [compound 243, (-)-N-{2-[3,5-Difluoro-6-(4-Fluorophenyl)-4-{2-[(Methanesulfoyl)Amino]Propan-2-yl}Pyridin-2-yl]-3,3,3-Trifluoro-2-Hydroxypropyl}-8-Methoxy-3-Methylcinnoline-6-Carboxamide], the EC50 in data set [1] (setting [3]) turned out to be 0.003 µM. Besides, the midpoint of cytotoxicity in data set [2] (TOX HELA CC50), the CC50 at 3 days, lay at 45 µM.
On the same counts, the results for `COc1cc(C(=O)NC[C@@](O)(c2nc(-c3ccc(F)cc3)c(F)c(C(C)(C)NS(C)(=O)=O)c2F)C(F)(F)F)cc2cc(C)nnc12` [compound 244, (+)-N-{2-[3,5-Difluoro-6-(4-Fluorophenyl)-4-{2-[(Methanesulfonyl)Amino]Propan-2-yl}Pyridin-2-yl]-3,3,3-Trifluoro-2-Hydroxypropyl}-8-Methoxy-3-Methylcinnoline-6-Carboxamide] are 0.058 µM and 43 µM.
The like results for `COc1cc(C(=O)NC[C@](O)(c2nc(-c3ccc(F)cc3)c(Cl)c(C(C)(C)O)c2F)C(F)(F)F)cc2cc(C)nnc12` [compound 247, (-)-N-{2-[5-Chloro-3-Fluoro-6-(4-Fluorophenyl)-4-(2-Hydroxypropan-2-yl)Pyridin-2-yl]-3,3,3-Trifluoro-2-Hydroxypropyl}-8-Methoxy-3-Methylcinnoline-6-Carboxamide] were, in that order, 0.0019 µM and 51 µM.
The like results for `COc1cc(C(=O)NC[C@](O)(c2cc(C(C)(C)O)c(Cl)c(-c3ccc(F)cc3)n2)C2CC2)cc2cc(C)nnc12` [compound 251, N-{(-)[5-Chloro-6-(4-Fluorophenyl)-4-(2-Hydroxypropanyl)Pyridinyl]CyclopropylHydroxyethyl}-8-Methoxy-3-Methylcinnoline-6-Carboxamide] were, in that order, 0.00053 µM and 28 µM.
In the case of `COc1cc(C(=O)NC[C@](O)(c2cc(C(C)(C)O)c(F)c(-c3ccc(F)cc3)n2)C2CC2)cc2cc(C)nnc12` [compound 252, (-)-N-{2-Cyclopropyl-2-[5-Fluoro-6-(4-Fluorophenyl)-4-(2-Hydroxypropan-2-yl)Pyridin-2-yl]-2-Hydroxyethyl}-8-Methoxy-3-Methylcinnoline-6-Carboxamide], the EC50 in data set [1] (setting [3]) and in data set [1] (setting [4]) was 0.0003 µM each time. The CC50 at 3 days was 38 µM in data set [2] (CC50) and 43 µM in data set [2] (TOX HELA CC50).
Take `Cc1cc2cc(C(=O)NC[C@](O)(c3cc(C(C)(C)O)c(Cl)c(-c4ccc(F)cc4)n3)C3CC3)cc(OC3CC3)c2nn1` [compound 264, (-)-N-{2-[5-Chloro-6-(4-Fluorophenyl)-4-(2-Hydroxypropan-2-yl)Pyridin-2-yl]-2-Cyclopropyl-2-Hydroxyethyl}-8-(Cyclopropyloxy)-3-Methylcinnoline-6-Carboxamide]: the EC50 in data set [1] (setting [3]) came to 0.00087 µM. Further, in data set [2] (TOX HELA CC50), the CC50 at 3 days came out at 32 µM.
On the same counts, the results for `Cc1cc2cc(C(=O)NC[C@](O)(c3cc(C(C)(C)O)c(F)c(-c4ccc(F)cc4)n3)C3CC3)cc(OC3CC3)c2nn1` [compound 265, (-)-N-{2-Cyclopropyl-2-[5-Fluoro-6-(4-Fluorophenyl)-4-(2-Hydroxypropan-2-yl)Pyridin-2-yl]-2-Hydroxyethyl}-8-(Cyclopropyloxy)-3-Methylcinnoline-6-Carboxamide] are 0.00069 µM and 39 µM.
Turning to `COc1cc(C(=O)NC[C@](O)(c2cc(C(C)(C)O)c(F)c(-c3ccc(F)cc3)n2)C(F)(F)F)cc2cc(C(F)F)nnc12` [compound 266, (-)(Difluoromethyl)-8-Methoxy-N-{3,3,3-Trifluoro-2-[5-Fluoro-6-(4-Fluorophenyl)-4-(2-Hydroxypropan-2-yl)Pyridin-2-yl]-2-Hydroxypropyl}Cinnoline-6-Carboxamide], in data set [1] (setting [3]), the EC50 amounted to 0.0035 µM. In data set [2] (TOX HELA CC50), this compound yielded a CC50 at 3 days of 25 µM.
The like results for `COc1cc(C(=O)NC[C@](O)(c2cc(C(C)(C)O)c(Cl)c(-c3ccc(F)cc3)n2)C(F)(F)F)cc2cc(C(F)F)nnc12` [compound 267, (-)-N-{2-[5-Chloro-6-(4-Fluorophenyl)-4-(2-Hydroxypropan-2-yl)Pyridin-2-yl]-3,3,3-Trifluoro-2-Hydroxypropyl}-3-(Difluoromethyl)-8-Methoxycinnoline-6-Carboxamide] were, in that order, 0.003 µM and 14 µM.
On the same counts, the results for `COc1cc(C(=O)NC[C@](O)(c2cc(C(C)(C)O)c(Cl)c(-c3ccc(F)cc3)n2)C2CC2)cc2cc(C(F)F)nnc12` [compound 268, N-{(-)[5-Chloro-6-(4-Fluorophenyl)-4-(2-Hydroxypropanyl)Pyridinyl]CyclopropylHydroxyethyl}-3-(Difluoromethyl)-8-Methoxycinnoline-6-Carboxamide] are 0.00067 µM and 18 µM.
On the same counts, the results for `COc1cc(C(=O)NC[C@](O)(c2cc(C(C)(C)O)c(F)c(-c3ccc(F)cc3)n2)C2CC2)cc2cc(C(F)F)nnc12` [compound 269] are 0.0012 µM and 20 µM.
Take `COc1cc(C(=O)NC[C@](O)(c2cc(C(C)(C)O)c(F)c(-c3ccc(F)c(F)c3)n2)C2CC2)cc2cc(C(F)F)nnc12` [compound 270, (-)-N-{2-Cyclopropyl-2-[6-(3,4-Difluorophenyl)-5-Fluoro-4-(2-Hydroxypropan-2-yl)Pyridin-2-yl]-2-Hydroxyethyl}-3-(Difluoromethyl)-8-Methoxycinnoline-6-Carboxamide]: the EC50 in data set [1] (setting [3]) is 0.00084 µM. In data set [2] (TOX HELA CC50), the CC50 at 3 days worked out at 15 µM.
Take `COc1cc(C(=O)NC[C@](O)(c2cc(C(C)(C)O)c(F)c(-c3ccc(F)cc3)n2)C2CC2)cc2cc(C3CC3)nnc12` [compound 271, 3-Cyclopropyl-N-{(-)-2-Cyclopropyl-2-[5-Fluoro-6-(4-Fluorophenyl)-4-(2-Hydroxypropan-2-yl)Pyridin-2-yl]-2-Hydroxyethyl)-8-Methoxycinnoline-6-Carboxamide]: the EC50 in data set [1] (setting [3]) and in data set [1] (setting [4]) was 0.0015 µM in each case. The CC50 at 3 days in data set [2] (CC50) and in data set [2] (TOX HELA CC50) was 11 µM each time.
With `Cc1cnc2c(OC3CC3)cc(C(=O)NC[C@](O)(c3cc(C(C)(C)O)c(F)c(-c4ccc(F)cc4)n3)C(F)(F)F)cc2c1` [compound 272, (-)8-(Cyclopropyloxy)-3-Methyl-N-{(2S)-3,3,3-Trifluoro-2-[5-Fluoro-6-(4-Fluorophenyl)-4-(2-Hydroxypropan-2-yl)Pyridin-2-yl]-2-Hydroxypropyl}Quinoline-6-Carboxamide], the EC50 in data set [1] (setting [3]) worked out at 0.0037 µM; in data set [1] (setting [4]) it was 0.004 µM. Besides, the CC50 at 3 days in data set [2] (CC50) and in data set [2] (TOX HELA CC50) was 17 µM each time.
Consider `COc1cc(C(=O)NC[C@](O)(c2cc(C(C)(C)O)c(F)c(-c3ccc(F)cc3)n2)C(F)(F)F)cc2cc(C)c(F)nc12` [compound 273, (-)Fluoro-8-methoxy-3-methyl-n-(3,3,3-trifluoro(5-fluoro-6-(4-fluorophenyl)-4-(2-hydroxypropanyl)pyridinyl)hydroxypropyl)quinoline-6-carboxamide], for which, in data set [1] (setting [3]), the EC50 came out at 0.00381 µM. In data set [2] (TOX HELA CC50), this compound returned a CC50 at 3 days of 13 µM.
On the same counts, the results for `COc1cc(C(=O)NC[C@](O)(c2cc(C(C)(C)O)c(F)c(-c3ccc(C(F)(F)F)cc3)n2)C(F)(F)F)cc2cc(C)nnc12` [compound 274, (-)Methoxy-3-Methyl-N-(3,3,3-Trifluoro-2-(5-Fluoro-4-(2-Hydroxypropan-2-yl)-6-(4-(Trifluoromethyl)Phenyl)pyridin-2-yl)-2-Hydroxypropyl)Cinnoline-6-Carboxamide] are 0.00148 µM and 11 µM.
On the same counts, the results for `COc1cc(C(=O)NC[C@@](O)(c2cc(C(C)(C)O)c(F)c(-c3ccc(F)cc3)n2)C2CC2)cc2cc(C)nnc12` [compound 275] are 0.097 µM and 17 µM.
On the same counts, the results for `COc1cc(C(=O)NC[C@](O)(c2cc(C(C)(C)NS(C)(=O)=O)c(Cl)c(-c3ccc(F)cc3)n2)C(F)(F)F)cc2cc(C)nnc12` [compound 276, (-)-N-{2-[5-Chloro-6-(4-Fluorophenyl)-4-{2-[(Methanesulfonyl)Amino]Propan-2-yl}Pyridin-2-yl]-3,3,3-Trifluoro-2-Hydroxypropyl}-8-Methoxy-3-Methylcinnoline-6-Carboxamide] are 0.0038 µM and 51 µM.
For the compound `COc1cc(C(=O)NC[C@](O)(c2cc(C(C)(C)O)c(Cl)c(-c3ccc(F)cc3)n2)C(F)(F)F)cc2cc(C(F)(F)F)nnc12` [compound 277], the EC50 in data set [1] (setting [3]) turned out to be 0.016 µM. The same compound displayed a CC50 at 3 days in data set [2] (TOX HELA CC50) of 15 µM.
On the same counts, the results for `COc1cc(C(=O)NC[C@](O)(c2cc(C(C)(C)O)c(F)c(-c3ccc(Cl)cc3)n2)C2CC2)cc2cc(C)nnc12` [compound 278] are 0.00065 µM and 29 µM.
The like results for `COc1cc(C(=O)NC[C@@](O)(c2nc(-c3ccc(F)cc3)cc(C(C)(C)O)c2F)C(F)(F)F)cc2cc(C)nnc12` [compound 280, (+)Methoxy-3-Methyl-N-(3.3.3-Trifluoro-2-(3-Fluoro-6-(4-Fluorophenyl)-4-(2-Hydroxypropan-2-yl)Pyridm-2-yl)-2-Hydroxypropyl)Cinnoline-6-Carboxamide] were, in that order, 0.449 µM and 9.4 µM.
In the case of `COc1cc(C(=O)NC[C@](O)(c2nc(-c3ccc(F)cc3)cc(C(C)(C)O)c2F)C(F)(F)F)cc2cc(C)nnc12` [compound 281, (-)Methoxy-3-Methyl-N-(3,3,3-Trifluoro-2-(3-Fluoro-6-(4-Fluorophenyl)-4-(2-Hydroxypropan-2-yl)Pyridin-2-yl)-2-Hydroxypropyl)Cinnoline-6-Carboxarmide], in data set [1] (setting [3]), the EC50 was found to be 0.029 µM. The same compound gave a CC50 at 3 days in data set [2] (TOX HELA CC50) of 24 µM.
The like results for `COc1cc(C(=O)NC[C@](O)(c2cc(C(C)(C)O)c(Cl)c(-c3ccc(F)cc3)n2)C2CC2)cc2cc(C3CC3)nnc12` [compound 282] were, in that order, 0.0032 µM and 13 µM.
